The text below walks through data of US10550080B2 (BRISTOL-MYERS SQUIBB COMPANY, priority 2016, dated 2020).

Structures are written as SMILES.

The target in one data set is hNaV1.7 (Homo sapiens (Human), UniProt Q15858). As to the kind of experiment: Ligand Binding Assay (LBA), radioligand displacement on hNaV1.7 HEK293 cell membranes. As to conditions: 0.5 nM [3H] radioligand, 24 hours at room temperature; read-out: NaV1.7 LBA IC50. On the procedure: Ligand Binding Assay (LBA): hNaV1.7 binding affinities were determined with a filtration binding assay using purified membranes from HEK293 cells stably expressing hNaV1.7. HEK293 cells from a 10-stack cell culture flask (approximately 10^10 cells) were dissociated, frozen, and stored at −80° C. To prepare membranes, the frozen cell pellet was thawed and suspended in 6 ml hypotonic lysis buffer (50 mM HEPES, 0.1% mammalian protease inhibitor cocktail). 1 ml of resuspended cells was added to an additional 6 ml of lysis buffer and homogenized with 30 strokes of a tight pestle in a glass homogenizer. Homogenate was centrifuged at 1000×g for 10 minutes at 4° C. and the resulting supernatant was further centrifuged at 38,500×g for 60 minutes at 4° C. The resulting pellet was resuspended in binding buffer (50 mM HEPES, 130 mM NaCl, 5.4 mM KCl, 0.8 mM MgCl2, 5 mM glucose, pH 7.4) and needle homogenized with a 25 gauge needle. Protein concentration was determined with a BCA protein assay. Purified membranes were aliquoted, flash frozen in an ethyl alcohol dry ice bath, and stored at −80° C. To measure displacement of a radiolabeled ligand, 50 μg of purified hNaV1.7 HEK cell membranes were incubated with test compounds (eight concentrations, in duplicate) and 0.5 nM [3H] labeled radioligand in a 96 well plate for 24 hours at room temperature on a shaker. The total binding reaction volume was 250 μl, consisting of 200 μl purified hNaV1.7 HEK cell membranes, 25 μl test compound, and 25 μl radioligand. Non-specific binding was defined by 20 μM of a reference hNaV1.7 inhibitor. Binding reactions were terminated by filtration through GF/B filters presoaked in 0.5% polyethyleneamine. Filters were washed 5 times with 2 ml each of 4′C wash buffer (50 mM Tris-HCl, pH 7.4 at 4° C.). Bound radioactivity captured on the filters was counted on a liquid scintillation counter. Specific binding, expressed as % inhibition, was fit with Graphpad Prism software to determine binding IC50 values. Results are reported in Table 1 (NaV1.7 LBA IC50 in nM).
Chain of hNaV1.7 (Q15858 whole entry): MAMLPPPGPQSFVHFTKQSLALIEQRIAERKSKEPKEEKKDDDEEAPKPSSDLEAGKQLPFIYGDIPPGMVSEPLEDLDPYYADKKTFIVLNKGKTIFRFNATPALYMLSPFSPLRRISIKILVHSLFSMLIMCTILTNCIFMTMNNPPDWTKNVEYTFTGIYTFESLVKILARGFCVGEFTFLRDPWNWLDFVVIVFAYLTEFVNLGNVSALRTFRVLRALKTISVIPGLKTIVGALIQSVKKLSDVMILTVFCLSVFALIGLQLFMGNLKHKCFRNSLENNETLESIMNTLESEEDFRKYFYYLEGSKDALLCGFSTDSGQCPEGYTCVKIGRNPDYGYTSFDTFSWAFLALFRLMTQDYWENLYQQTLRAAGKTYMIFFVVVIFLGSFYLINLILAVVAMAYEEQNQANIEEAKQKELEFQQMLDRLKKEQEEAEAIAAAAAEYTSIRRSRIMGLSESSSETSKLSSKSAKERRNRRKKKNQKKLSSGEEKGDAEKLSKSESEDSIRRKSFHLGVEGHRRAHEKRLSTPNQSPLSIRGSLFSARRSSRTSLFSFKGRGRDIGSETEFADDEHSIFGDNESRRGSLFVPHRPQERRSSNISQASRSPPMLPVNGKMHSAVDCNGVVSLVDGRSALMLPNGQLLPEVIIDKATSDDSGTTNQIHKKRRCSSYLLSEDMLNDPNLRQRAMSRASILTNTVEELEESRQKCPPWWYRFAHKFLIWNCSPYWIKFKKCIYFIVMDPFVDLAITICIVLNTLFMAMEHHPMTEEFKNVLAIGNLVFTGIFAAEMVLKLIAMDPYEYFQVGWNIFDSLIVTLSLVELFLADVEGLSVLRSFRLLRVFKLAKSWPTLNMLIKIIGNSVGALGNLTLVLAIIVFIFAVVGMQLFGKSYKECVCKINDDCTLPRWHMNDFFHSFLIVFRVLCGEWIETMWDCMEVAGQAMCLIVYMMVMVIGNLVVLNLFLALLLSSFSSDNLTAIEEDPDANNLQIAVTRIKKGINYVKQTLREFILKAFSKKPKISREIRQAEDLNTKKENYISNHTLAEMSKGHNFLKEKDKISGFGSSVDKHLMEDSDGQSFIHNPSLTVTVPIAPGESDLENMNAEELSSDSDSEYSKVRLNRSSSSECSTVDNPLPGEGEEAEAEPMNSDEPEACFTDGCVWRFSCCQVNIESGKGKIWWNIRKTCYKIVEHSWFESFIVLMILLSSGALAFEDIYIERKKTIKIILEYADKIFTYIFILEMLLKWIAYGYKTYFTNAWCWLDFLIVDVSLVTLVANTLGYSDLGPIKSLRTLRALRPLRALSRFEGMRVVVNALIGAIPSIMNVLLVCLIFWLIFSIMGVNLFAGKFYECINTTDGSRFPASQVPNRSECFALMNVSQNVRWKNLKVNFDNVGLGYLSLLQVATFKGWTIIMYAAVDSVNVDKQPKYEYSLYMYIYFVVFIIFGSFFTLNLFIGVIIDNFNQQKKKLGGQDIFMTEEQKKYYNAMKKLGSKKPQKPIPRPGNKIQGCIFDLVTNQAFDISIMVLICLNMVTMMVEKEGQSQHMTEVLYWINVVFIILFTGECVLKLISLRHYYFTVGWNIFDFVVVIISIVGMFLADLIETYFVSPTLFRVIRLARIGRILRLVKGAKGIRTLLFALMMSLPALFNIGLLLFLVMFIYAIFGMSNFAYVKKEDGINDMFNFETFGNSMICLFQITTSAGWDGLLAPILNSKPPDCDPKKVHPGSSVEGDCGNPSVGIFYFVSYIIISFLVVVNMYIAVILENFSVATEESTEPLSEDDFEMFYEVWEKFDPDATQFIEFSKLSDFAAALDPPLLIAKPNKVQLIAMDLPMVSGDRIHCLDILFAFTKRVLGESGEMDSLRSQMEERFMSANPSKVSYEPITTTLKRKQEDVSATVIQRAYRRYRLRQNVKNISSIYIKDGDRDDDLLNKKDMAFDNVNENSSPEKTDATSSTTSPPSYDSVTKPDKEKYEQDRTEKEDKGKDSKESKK
(In general: In a radioligand displacement assay an active substance lowers the binding of a labelled ligand.)

A further data set concerns the target NaV1.7 (Homo sapiens (Human), UniProt Q15858). Description: Automated electrophysiology, IonWorks Barracuda population patch clamp, NaV1.7 current (inactivated-state protocol). To be noted: HEK 293 cells expressing NaV1.7; 600 sec compound incubation; read-out: NaV1.7 Barra IC50. The class given is cell-based. The procedure:
(§1) Automated Electrophysiology: Ion Works Barracuda population patch clamp (PPC). PPC measurements were performed using an IonWorks Barracuda instrument (Molecular Devices Corporation, Union City, Calif.) using either PatchPlate™ PPC substrates (Molecular Devices Corporation) with 64 apertures per well. The ability to average currents from 64 recordings from each well greatly improves data consistency and recording success rates in the measurement of NaV1.7 mediated ionic currents. Calculated leak current was digitally subtracted from the total cell NaV1.7 current for each sample point acquired.
(§2) NaV1.7 currents were elicited by a voltage clamp protocol designed to bias the NaV1.7 channels to their inactivated state as follows. From holding potential of −60 mV cells were briefly hyperpolarized to −100 mV for 1.25 sec, then stepped to −20 mV for 20 sec to inactivate the channels. This was followed by a relatively brief hyperpolarization to −100 mv for 300 ms, then a 20 msec test pulse to −20 mV to elicit the NaV1.7 current used to measure the pharmacology of all test compounds. Compounds were incubated for 600 sec between the pre- and post-compound reads. The external recording solution used was (in mM) 137 NaCl, 4 KCl, 1 MgCl2, 1.8 CaCl2, 10 Hepes, 10 glucose, pH to 7.4 with NaOH, and the internal solution used was (in mM) 100 K-gluconate, 40 KCl, 3.2 zMgCl2, 5 EGTA, 10 HEPES pH to 7.2 with KOH. The same solutions were used to record NaV1.5 currents, with the following voltage clamp protocol. NaV1.5 currents were elicited by a voltage clamp protocol designed to bias the NaV1.5 channels to their inactivated state as follows. From holding potential of −40 mV cells were briefly hyperpolarized to −100 mV for 300 ms, then stepped to −10 mV for 20 sec to inactivate the channels. This was followed by a relatively brief hyperpolarization to −100 mv for 30 ms, then a 20 msec test pulse to −10 mV to elicit the NaV1.5 current used to measure the pharmacology of all test compounds.
(§3) HEK 293 cells expressing NaV1.7 and NaV1.5 channels, were used (Essen Biosciences, Ann Arbor, Mich.). Cells were cultured in T-175 flasks and passaged every 2 to 3 days at 1:3 to 1:6 seeding density dilutions. Cells were grown to 70% to 90% confluence in a flask and removed from the incubator (37° C., 5% CO2) 1 to 3 days after plating. Growth medium was aspirated from the culture flasks. Cells were gently rinsed with 10 ml of PBS (Catalog number: 14190144, Gibco) to remove residual media. Next a total of 2 mL TrypLE (Gibco) solution was added, and the flasks containing cells were sat for 3 min at RT, after which, the cells became visibly rounded and were easily dislodged from the bottom of the flask with a few brief taps on a solid surface. A total of 8 mL of media was added to the flask to inactivate the TrypLE, and the mixture was centrifuged at 910 rpm for 4 min. The cell supernatant was decanted, and the cell pellets were resuspended in 5-6 mL of external solution followed by gentle triturations using a 10 ml pipette, and transferred to a 15 ml conical tube and immediately brought to the IW Barracuda instrument.
(§4) Peak membrane currents were analyzed with IW Barracuda software and exported to Excel for further analysis. Concentration response curve fitting was performed with BMS in-house software. IC50 values were obtained by fits of the Hill equation to the average percent inhibition data plotted versus compound concentration. […] Results are reported in Table 1 (NaV1.7 Barra IC50 in nM and NaV1.5 Barra IC50 in nM).
(In general: The patch-clamp technique gives a direct electrical read-out from membranes.)

Another data set deals with NaV1.5 (Homo sapiens (Human), UniProt Q14524). Description: Automated electrophysiology, IonWorks Barracuda population patch clamp, NaV1.5 current (inactivated-state protocol). As to conditions: HEK 293 cells expressing NaV1.5; read-out: NaV1.5 Barra IC50. The class given is cell-based. On the procedure:
as §1, §2, §3, §4

Chain of NaV1.5 (Q14524 whole entry): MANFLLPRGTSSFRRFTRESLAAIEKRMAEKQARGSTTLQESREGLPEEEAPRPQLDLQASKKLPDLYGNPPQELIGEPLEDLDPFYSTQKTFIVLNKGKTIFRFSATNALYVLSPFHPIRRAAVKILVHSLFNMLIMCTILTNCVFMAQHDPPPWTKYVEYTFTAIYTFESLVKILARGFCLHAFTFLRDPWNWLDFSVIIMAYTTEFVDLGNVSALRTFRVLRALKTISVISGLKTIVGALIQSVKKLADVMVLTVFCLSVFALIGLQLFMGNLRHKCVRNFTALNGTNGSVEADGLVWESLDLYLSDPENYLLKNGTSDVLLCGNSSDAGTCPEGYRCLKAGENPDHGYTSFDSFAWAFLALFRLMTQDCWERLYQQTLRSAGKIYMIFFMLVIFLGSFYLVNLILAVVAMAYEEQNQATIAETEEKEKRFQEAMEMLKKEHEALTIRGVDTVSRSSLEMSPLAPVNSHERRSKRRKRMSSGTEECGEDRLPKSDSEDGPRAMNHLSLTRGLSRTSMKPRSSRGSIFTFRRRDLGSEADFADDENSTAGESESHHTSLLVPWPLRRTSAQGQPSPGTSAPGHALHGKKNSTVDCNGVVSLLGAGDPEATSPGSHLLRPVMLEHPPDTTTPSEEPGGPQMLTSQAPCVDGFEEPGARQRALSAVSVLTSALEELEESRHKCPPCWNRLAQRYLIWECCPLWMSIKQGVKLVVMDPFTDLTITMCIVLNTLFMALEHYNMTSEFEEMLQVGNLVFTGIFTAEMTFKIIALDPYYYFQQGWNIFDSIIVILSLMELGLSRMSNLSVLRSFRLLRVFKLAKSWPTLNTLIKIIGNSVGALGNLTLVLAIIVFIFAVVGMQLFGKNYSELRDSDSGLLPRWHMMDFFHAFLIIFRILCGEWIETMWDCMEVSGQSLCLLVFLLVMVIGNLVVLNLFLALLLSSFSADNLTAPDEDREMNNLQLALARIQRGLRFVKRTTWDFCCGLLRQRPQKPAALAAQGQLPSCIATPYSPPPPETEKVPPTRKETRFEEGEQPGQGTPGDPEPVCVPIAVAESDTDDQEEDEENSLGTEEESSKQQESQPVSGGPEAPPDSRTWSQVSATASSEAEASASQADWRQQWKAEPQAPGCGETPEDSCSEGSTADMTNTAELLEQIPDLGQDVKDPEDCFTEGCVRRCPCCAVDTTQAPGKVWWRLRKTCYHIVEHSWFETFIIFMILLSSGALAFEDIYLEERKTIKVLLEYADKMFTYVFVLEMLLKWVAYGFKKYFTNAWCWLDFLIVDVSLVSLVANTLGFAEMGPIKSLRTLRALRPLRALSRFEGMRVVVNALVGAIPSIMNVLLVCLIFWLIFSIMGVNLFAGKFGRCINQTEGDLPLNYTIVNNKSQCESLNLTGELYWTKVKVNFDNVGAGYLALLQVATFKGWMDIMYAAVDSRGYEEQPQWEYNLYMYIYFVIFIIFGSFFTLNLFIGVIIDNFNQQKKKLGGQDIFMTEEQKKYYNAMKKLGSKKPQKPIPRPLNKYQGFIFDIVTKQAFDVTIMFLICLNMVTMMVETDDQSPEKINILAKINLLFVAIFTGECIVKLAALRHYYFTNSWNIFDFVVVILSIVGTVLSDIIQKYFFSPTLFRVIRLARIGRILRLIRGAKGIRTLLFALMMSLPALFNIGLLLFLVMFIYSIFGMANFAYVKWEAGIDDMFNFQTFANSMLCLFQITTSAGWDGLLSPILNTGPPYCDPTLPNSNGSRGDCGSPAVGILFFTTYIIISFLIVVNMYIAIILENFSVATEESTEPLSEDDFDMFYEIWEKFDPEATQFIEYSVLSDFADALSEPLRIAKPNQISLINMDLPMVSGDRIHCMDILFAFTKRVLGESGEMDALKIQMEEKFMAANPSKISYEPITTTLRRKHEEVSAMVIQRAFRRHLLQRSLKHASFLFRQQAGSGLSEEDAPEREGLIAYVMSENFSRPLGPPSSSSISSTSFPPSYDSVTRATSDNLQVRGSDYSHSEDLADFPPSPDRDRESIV
Chain of NaV1.7 (Q15858 whole entry): as the sequence (Q15858 whole entry) above

Usually IC50 stands for the midpoint of a concentration-inhibition curve. On to `Cn1cc(-c2ccc(C(F)(F)F)cc2)c2ccc(C(=O)NS(C)(=O)=O)cc21` [Example 1, 1-Methyl-N-(methylsulfonyl)-3-(4-(trifluoromethyl)phenyl)-1H-indole-6-carboxamide], for which the IC50 on hNaV1.7 is 0.422 µM; on NaV1.7 it was 0.085 µM; at NaV1.5, 19.6 µM.
On to `CC(C)COc1ncc(-c2cn(C)c3cc(C(=O)NS(C)(=O)=O)ccc23)cc1Cl` [Example 2, 3-(5-Chloro-6-isobutoxypyridin-3-yl)-1-methyl-N-(methylsulfonyl)-1H-indole-6-carboxamide], for which the IC50 at hNaV1.7 was found to be 0.091 µM; at NaV1.7 it was 0.09 µM; on NaV1.5, 18.3 µM.
On the same counts, the results for `Cn1cc(-c2cccc(F)c2F)c2ccc(C(=O)NS(C)(=O)=O)cc21` [Example 3, 3-(2,3-Difluorophenyl)-1-methyl-N-(methylsulfonyl)-1H-indole-6-carboxamide] are 4.94 µM, 2.86 µM and greater than 30 µM.
For the compound `Cn1cc(-c2ccc(OC(F)(F)F)cc2)c2ccc(C(=O)NS(C)(=O)=O)cc21` [Example 4, 1-Methyl-N-(methylsulfonyl)-3-(4-(trifluoromethoxy)phenyl)-1H-indole-6-carboxamide], the IC50 on hNaV1.7 was determined as 0.243 µM; on NaV1.7 it was 0.08 µM; at NaV1.5 it was 18.3 µM.
On the same counts, the results for `Cn1cc(-c2ccccc2)c2ccc(C(=O)NS(C)(=O)=O)cc21` [Example 5, 1-Methyl-N-(methylsulfonyl)-3-phenyl-1H-indole-6-carboxamide] are 7.27 µM, 0.743 µM and greater than 30 µM.
Take `COc1ncccc1-c1cn(C)c2cc(C(=O)NS(C)(=O)=O)ccc12` [Example 6, 3-(2-Methoxypyridin-3-yl)-1-methyl-N-(methylsulfonyl)-1H-indole-6-carboxamide]: the IC50 on hNaV1.7, at NaV1.7 and at NaV1.5 was greater than 30 µM in each case.
Take `Cn1cc(-c2cncc(F)c2)c2ccc(C(=O)NS(C)(=O)=O)cc21` [Example 7, 3-(5-Fluoropyridin-3-yl)-1-methyl-N-(methylsulfonyl)-1H-indole-6-carboxamide]: the IC50 on NaV1.7 and at NaV1.5 was greater than 30 µM in each case.
In the case of `Cn1cc(-c2cccnc2)c2ccc(C(=O)NS(C)(=O)=O)cc21` [Example 8, 1-Methyl-N-(methylsulfonyl)-3-(pyridin-3-yl)-1H-indole-6-carboxamide], on NaV1.7, the concentration for half-maximal inhibition (IC50) was greater than 30 µM.
On to `CCOc1ncc(-c2cn(C)c3cc(C(=O)NS(C)(=O)=O)ccc23)cn1` [Example 9, 3-(2-Ethoxypyrimidin-5-yl)-1-methyl-N-(methylsulfonyl)-1H-indole-6-carboxamide], for which the IC50 at hNaV1.7 was greater than 20 µM; at NaV1.7, greater than 30 µM; at NaV1.5 it was greater than 30 µM.
On to `Cc1ccc(-c2cn(C)c3cc(C(=O)NS(C)(=O)=O)ccc23)cc1` [Example 10, 1-Methyl-N-(methylsulfonyl)-3-(p-tolyl)-1H-indole-6-carboxamide], for which the IC50 was 1.03 µM at hNaV1.7, 0.739 µM at NaV1.7 and greater than 30 µM on NaV1.5.
On to `Cn1cc(-c2ccc(C(F)(F)F)cc2Cl)c2ccc(C(=O)NS(C)(=O)=O)cc21` [Example 11, 3-(2-Chloro-4-(trifluoromethyl)phenyl)-1-methyl-N-(methylsulfonyl)-1H-indole-6-carboxamide], for which the IC50 at hNaV1.7 came out at 0.75 µM; at NaV1.7, 0.604 µM; on NaV1.5, 8.64 µM.
For the compound `CC(C)Cc1ccc(-c2cn(C)c3cc(C(=O)NS(C)(=O)=O)ccc23)cc1` [Example 12, 3-(4-Isobutylphenyl)-1-methyl-N-(methylsulfonyl)-1H-indole-6-carboxamide], the IC50 at hNaV1.7 is 0.317 µM; on NaV1.7, 0.363 µM; on NaV1.5 it was greater than 30 µM.
For the compound `Cn1cc(-c2cccc(C(F)(F)F)c2)c2ccc(C(=O)NS(C)(=O)=O)cc21` [Example 13, 1-Methyl-N-(methylsulfonyl)-3-(3-(trifluoromethyl)phenyl)-1H-indole-6-carboxamide], the figures for the IC50 on hNaV1.7, on NaV1.7 and at NaV1.5 were 0.29 µM, 1.42 µM and greater than 30 µM, respectively.
Consider `CC(C)COc1ccc(-c2cn(C)c3cc(C(=O)NS(C)(=O)=O)ccc23)cc1` [Example 22, 3-(4-Isobutoxyphenyl)-1-methyl-N-(methylsulfonyl)-1H-indole-6-carboxamide], for which the figures for the IC50 at hNaV1.7 and at NaV1.7 were 0.275 µM and 0.525 µM, respectively.
On to `CC(C)COc1ncc(-c2cn(C)c3cc(C(=O)NS(=O)(=O)N(C)C)ccc23)cc1Cl` [Example 25, 3-(5-Chloro-6-isobutoxypyridin-3-yl)-N—(N,N-dimethylsulfamoyl)-1-methyl-1H-indole-6-carboxamide], for which the IC50 on NaV1.7 worked out at 1.28 µM; on NaV1.5, 6.33 µM.
On to `CC(C)COc1ncc(-c2cn(C)c3cc(C(=O)NS(=O)(=O)N4CCCCC4)ccc23)cc1Cl` [Example 26, 3-(5-Chloro-6-isobutoxypyridin-3-yl)-1-methyl-N-(piperidin-1-ylsulfonyl)-1H-indole-6-carboxamide], for which the IC50 at NaV1.7 was 4.18 µM; at NaV1.5 it was 8.77 µM.
On the same counts, the results for `CC(C)COc1ncc(-c2cn(CC(C)C)c3cc(C(=O)NS(C)(=O)=O)ccc23)cc1Cl` [Example 27, 3-(5-Chloro-6-isobutoxypyridin-3-yl)-1-isobutyl-N-(methylsulfonyl)-1H-indole-6-carboxamide] are 3.33 µM and 23.7 µM.
The corresponding values for `CC(C)COc1ncc(-c2cn(CC(C)C)c3cc(C(=O)NS(=O)(=O)C4CC4)ccc23)cc1Cl` [Example 28, 3-(5-Chloro-6-isobutoxypyridin-3-yl)-N-(cyclopropylsulfonyl)-1-isobutyl-1H-indole-6-carboxamide] are 8.05 µM and 11.3 µM.
Take `CN(C)S(=O)(=O)NC(=O)c1ccc2c(-c3ccc(C(F)F)cc3)cn(C)c2c1` [Example 32, 3-(4-(Difluoromethyl)phenyl)-N—(N,N-dimethylsulfamoyl)-1-methyl-1H-indole-6-carboxamide]: the IC50 is 1.91 µM at NaV1.7 and greater than 30 µM at NaV1.5.
In the case of `CN(C)S(=O)(=O)NC(=O)c1ccc2c(-c3ccc(C(F)(F)F)cc3)cn(C)c2c1` [Example 33], the concentration for half-maximal inhibition (IC50) was determined as 1.92 µM on NaV1.7 and 24.5 µM on NaV1.5.
